Data: US9556121B2, “Pyridyloxyalkyl carboxamides and use thereof as endoparasiticides and nematicides” (BAYER CROPSCIENCE AG, priority 2012, dated 2017)

Assays:
Format in all cases: in vivo
Cooperia curticei = Cooperia curticei test (COOPCU), larval kill; details: for effect (kill in %): after 5 days, about 40 nematode larvae
Method: Cooperia curticei Test (COOPCU)
(§1) Solvent: dimethyl sulphoxide
(§2) To produce a suitable preparation of active compound, 10 mg of active compound are mixed with 0.5 ml of dimethyl sulphoxide, and the concentrate is diluted with Ringer solution to the desired concentration.
Vessels containing the active compound preparation of the desired concentration are populated with about 40 nematode larvae (Cooperia curticei).
(§3) After 5 days, the kill in % is determined. 100% means that all of the larvae have been killed; 0% means that none of the larvae have been killed.

Haemonchus contortus = Haemonchus contortus test (HAEMCO), larval kill; details: for effect (kill in %): application rate 20 ppm, after 5 days, about 40 larvae
Method: Haemonchus contortus Test (HAEMCO)
as §1, §2
Vessels containing the active compound preparation of the desired concentration are populated with about 40 larvae of the red stomach worm (Haemonchus contortus).
as §3

Meloidogyne incognita = Meloidogyne incognita test (MELGIN), gall formation on lettuce; details: application rate 20 ppm, after 14 days, sand, egg/larvae suspension
Method: Meloidogyne incognita Test (MELGIN)
Solvent: 125.0 parts by weight of acetone
To prepare a suitable active compound preparation, 1 part by weight of active compound is mixed with the stated amount of solvent and the concentrate is diluted with water to the desired concentration.
Vessels are filled with sand, active compound solution, an egg/larvae suspension of the root-knot nematode (Meloidogyne incognita) and lettuce seeds. The lettuce seeds germinate and the plants develop. On the roots, galls are formed.
After 14 days, the nematicidal effect in % is determined by the formation of galls. 100% means that no galls have been found; 0% means that the number of galls on the treated plants corresponds to the untreated control.

Structure (SMILES): O=C(NCCOc1ccc(C(F)(F)F)cn1)c1c(F)cccc1F [1-45]
- effect (kill in %) (Cooperia curticei; application rate 100 ppm): 80%
- effect (kill in %) (Haemonchus contortus): 90%

Structure (SMILES): O=C(NCCOc1ccc(Cl)cn1)c1ccccc1I [1-34]
- effect (kill in %) (Haemonchus contortus): 90%

Structure (SMILES): O=C(NCCOc1ncc(F)cc1F)c1ccccc1I [1-141]
- nematicidal effect in % (formation of galls) (Meloidogyne incognita): 90%

Structure (SMILES): O=C(NCCOc1ncc(C(F)(F)F)cc1Cl)c1cccnc1C(F)(F)F [1-63]
- effect (kill in %) (Cooperia curticei; application rate 20 ppm): 80%
- effect (kill in %) (Haemonchus contortus): 90%
- nematicidal effect in % (formation of galls) (Meloidogyne incognita): 90%

Structure (SMILES): O=C(NC1(COc2ncc(C(F)(F)F)cc2Cl)CC1)c1ccccc1[N+](=O)[O-] [1-195]
- effect (kill in %) (Haemonchus contortus): 80%

Structure (SMILES): O=C(NC1(COc2ccc(C(F)(F)F)cn2)CC1)c1ccccc1C(F)(F)F [1-173]
- effect (kill in %) (Cooperia curticei; application rate 20 ppm): 100%
- effect (kill in %) (Haemonchus contortus): 100%

Structure (SMILES): O=C(NCCOc1ncc(Cl)cc1Cl)c1ccccc1Cl [1-16]
- effect (kill in %) (Haemonchus contortus): 100%

Structure (SMILES): CC(COc1ncc(C(F)(F)F)cc1Cl)NC(=O)c1ccccc1C(F)(F)F (centres unmarked) [1-4]
- inhibition at 20 ppm (Cooperia curticei; Cooperia curticei, 120 h, COOPCU, 20 ppm, 5 dat): 100%
- effect (kill in %) (Cooperia curticei; application rate 20 ppm): 100%
- inhibition at 20 ppm (Haemonchus contortus; Haemonchus contortus, 120 h, HAEMCO, 20 ppm, 5 dat): 90%
- effect (kill in %) (Haemonchus contortus): 90%

Structure (SMILES): O=C(NCCOc1ccc(C(F)(F)F)cn1)c1sccc1Cl [1-49]
- nematicidal effect in % (formation of galls) (Meloidogyne incognita): 90%

Structure (SMILES): O=C(NCCOc1ncc(C(F)(F)F)cc1Cl)c1c(F)cccc1F [1-52]
- effect (kill in %) (Haemonchus contortus): 90%

Structure (SMILES): O=C(NC1(COc2ccc(C(F)(F)F)cn2)CC1)c1ccccc1[N+](=O)[O-] [1-196]
- effect (kill in %) (Haemonchus contortus): 90%

Structure (SMILES): O=C(NCCOc1ncc(Cl)cc1Cl)c1sccc1Cl [1-23]
- effect (kill in %) (Haemonchus contortus): 80%

Structure (SMILES): O=C(NCCOc1ncc(C(F)(F)F)cc1Cl)c1ccccc1[N+](=O)[O-] [1-53]
- effect (kill in %) (Haemonchus contortus): 100%

Structure (SMILES): O=C(NCCOc1ncc(C(F)(F)F)cc1Cl)c1ccccc1C(F)(F)F [1-1]
- effect (kill in %) (Cooperia curticei; application rate 20 ppm): 100%
- effect (kill in %) (Haemonchus contortus): 100%

Structure (SMILES): O=C(NCCOc1ccc(C(F)(F)F)cn1)c1ccccc1Cl [1-42]
- effect (kill in %) (Haemonchus contortus): 80%

Structure (SMILES): O=C(NCCOc1ncc(Cl)cc1Cl)c1sccc1I [1-22]
- effect (kill in %) (Haemonchus contortus): 100%

Structure (SMILES): O=C(NCCOc1ncc(F)cc1F)c1c(F)cccc1F [1-133]
- nematicidal effect in % (formation of galls) (Meloidogyne incognita): 90%

Structure (SMILES): O=C(NCCOc1ncc(Cl)cc1Cl)c1ccccc1C(F)(F)F [1-20]
- effect (kill in %) (Haemonchus contortus): 100%

Structure (SMILES): O=C(NCCOc1ncc(Cl)cc1Cl)c1ccccc1F [1-15]
- effect (kill in %) (Haemonchus contortus): 80%

Structure (SMILES): N#Cc1cnc(OCCNC(=O)c2c(F)cccc2F)c(F)c1 [1-189]
- nematicidal effect in % (formation of galls) (Meloidogyne incognita): 90%

Structure (SMILES): O=C(NCCOc1ccc(C(F)(F)F)cn1)c1cccnc1C(F)(F)F [1-57]
- effect (kill in %) (Haemonchus contortus): 80%

Structure (SMILES): O=C(NCCOc1ncc(C(F)(F)F)cc1Cl)c1ccccc1Br [1-27]
- effect (kill in %) (Cooperia curticei; application rate 20 ppm): 90%
- effect (kill in %) (Haemonchus contortus): 100%

Structure (SMILES): CC(C)(COc1ccc(C(F)(F)F)cn1)NC(=O)c1ccccc1C(F)(F)F [1-78]
- effect (kill in %) (Cooperia curticei; application rate 20 ppm): 80%
- effect (kill in %) (Haemonchus contortus): 80%

Structure (SMILES): O=C(NC1(COc2ccc(C(F)(F)F)cn2)CC1)c1ccccc1Br [1-176]
- effect (kill in %) (Cooperia curticei; application rate 20 ppm): 90%
- effect (kill in %) (Haemonchus contortus): 90%
